Reference: patent US20150005320A9, “COMPOUNDS FOR INFLAMMATION AND IMMUNE-RELATED USES” (Synta Pharmaceuticals Corp., priority 2003, published 2015)
pIC50: −log10 of the molar value.

Legend:
CRAC ion channel [1] = biological target: CRAC ion channel (Rattus norvegicus, UniProt Q5M848); assay: Patch clamp inhibition of ICRAC current in RBL cells; type: cell-based; conditions: whole-cell patch clamp, read-out: IC50 (concentration which inhibits 50% of the ICRAC current)
Method: In general, a whole cell patch clamp method was used to examine the effects of a compound of the invention on a channel that mediates Icrac. In such experiments, a baseline measurement was established for a patched cell. Then a compound to be tested was perfused (or puffed) to cells in the external solution and the effect of the compound on Icrac was measured. A compound that modulates Icrac (e.g., inhibits) is a compound that is useful in the invention for modulating CRAC ion channel activity.
Rat basophilic leukemia cells (RBL-2H3) were grown in DMEM media supplemented with 10% fetal bovine serum in an atmosphere of 95% air/5% CO2. Cells were seeded on glass coverslips 1-3 days before use.
Membrane currents of individual cells were recorded using the whole-cell configuration of the patch clamp technique with an EPC10 (HEKA Electronik, Lambrecht, Germany). Electrodes (2-5 MO in resistance) were fashioned from borosilicate glass capillary tubes (Sutter Instruments, Novato, Ca). The recordings were done at room temperature.
Cs-Glutamate 120 mM; CsCl 20 mM; CsBAPTA 10 mM; CsHEPES 10 mM; NaCl 8 mM; MgCl2 1 mM; IP3 0.02 mM; pH=7.4 adjusted with CsOH. (Shielded from light and kept on ice before experiment)
NaCl 138 mM; NaHEPES, 10 mM; CsCl 10 mM; CaCl2 10 mM; Glucose 5.5 mM; KC1-5.4 mM; KH2PO4 0.4 mM; Na2HPO4H2 0.3 mM at pH=7.4 adjusted with NaOH.
Each compound was diluted from a 10 mM stock in series using DMSO (10 μM, 3.2 μM, […], 316 nM, 100 nM, 32 nM). The final DMSO concentration was always kept at 0.1%.
ICRAC currents were monitored every 2 seconds using a 50 msec protocol, where the voltage was ramped from −100 mV to +100 mV. The membrane potential was held at 0 mV between the test ramps. In a typical experiment the peak inward currents would develop within 50-100 seconds. […]
The ICRAC current level was determined by measuring the inward current amplitude at −80 mV of the voltage ramp in an off-line analysis using MATLAB. The ICRAC current inhibition for each concentration was calculated using peak amplitude in the beginning of the experiment from the same cell. […]

IL-2 production [2] = assay: IL-2 production upon PMA/ionomycin stimulation in whole blood from dosed cynomolgus monkeys; type: in vivo; conditions: cynomolgus monkey, IV 5 mg/kg, 4 hours after dosing, FIG. 3
Method: (§1) 3 male non-naïve cynomolgus monkeys were fasted overnight prior to and for four (4) hours following each dose. Each monkey was given a single intravenous dose of the appropriate test compound followed by a 1 mL rinse of saline to flush the catheter. The dose was infused over one hour using calibrated syringe pumps. Following a one week washout, the same three monkeys were given a single oral gavage dose of the appropriate test compound dose formulation followed by a 10 mL flush with tap water. Following a second one week washout, the same three monkeys received a second oral dose of the appropriate test compound dose formulation followed by a 10 mL flush with tap water. Following a third one week washout, the same three monkeys received a third oral dose of the appropriate test compound dose formulation followed by a 10 mL flush with tap water. Prior to and at 1, 2, and 4 hours following each dose (measured from the start of dosing for IV doses), blood samples (3 mL/sample for Group 1 and 2 mL/sample for Groups 2 and 3) were drawn into tubes containing sodium heparin and stored at room temperature, and the concentration of the test compounds in each sample was measured. CsA was included as a positive control.

TNF-α production = TNF-α production upon PMA/ionomycin stimulation in whole blood from dosed cynomolgus monkeys; type: in vivo; conditions: cynomolgus monkey, IV 5 mg/kg, 4 hours after dosing, FIG. 4
Method: as §1

CRAC ion channel [3] = assay: Patch clamp inhibition of ICRAC current in primary T cells; type: cell-based; conditions: primary human T cells, FIG. 1
Method: Primary T cells were obtained from human whole blood samples by adding 100 μL of RosetteSep® human T cell enrichment cocktail to 2 mL of whole blood. The mixture was incubated for 20 minutes at room temperature, then diluted with an equal volume of PBS containing 2% FBS. The mixture was layered on top of RosetteSep® DM-L density medium and then centrifuged for 20 minutes at 1200 g at room temperature.
The enriched T cells were recovered from the plasma/density medium interface, then washed with PBS containing 2% FBS twice, and used in patch clamp experiments following the procedure described for RBL cells.

IL-2 production [4] = assay: Inhibition of IL-2 production in PHA-activated Jurkat cells (ELISA); type: cell-based; conditions: Homo sapiens, 20 h
Method: Jurkat cells were placed in a 96 well plate (0.5 million cells per well in 1% FBS medium) then test compounds of this invention were added at different concentrations. After 10 minutes, the cells were activated with PHA (final concentration 2.5 μg/mL) and incubated for 20 hours at 37° C. under CO2. The final volume was 200 μL. Following incubation, the cells were centrifuged and the supernatants collected and stored at −70° C. prior to assaying for IL-2 production. A commercial ELISA kit (IL-2 Eli-pair, Diaclone Research, Besancon, France) was used to detect production of IL-2, from which dose response curves were obtained. The IC50 value was calculated as the concentration at which 50% of maximum IL-2 production after stimulation was inhibited versus a non-stimulation control.

Chain of CRAC ion channel (Rattus norvegicus, UniProt Q5M848) (Q5M848 whole entry, the tested form may be a part): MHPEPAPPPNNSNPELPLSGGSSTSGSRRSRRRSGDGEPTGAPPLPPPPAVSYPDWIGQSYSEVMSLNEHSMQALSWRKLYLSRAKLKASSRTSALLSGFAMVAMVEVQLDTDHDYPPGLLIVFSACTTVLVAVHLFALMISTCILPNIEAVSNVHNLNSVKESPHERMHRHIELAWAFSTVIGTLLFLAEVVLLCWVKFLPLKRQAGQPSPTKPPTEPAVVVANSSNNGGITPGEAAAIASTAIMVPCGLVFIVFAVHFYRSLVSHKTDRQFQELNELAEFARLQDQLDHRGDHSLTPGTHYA
Chain of CRAC ion channel (Rattus norvegicus, UniProt Q5M848) (P84903 23-685, further chain): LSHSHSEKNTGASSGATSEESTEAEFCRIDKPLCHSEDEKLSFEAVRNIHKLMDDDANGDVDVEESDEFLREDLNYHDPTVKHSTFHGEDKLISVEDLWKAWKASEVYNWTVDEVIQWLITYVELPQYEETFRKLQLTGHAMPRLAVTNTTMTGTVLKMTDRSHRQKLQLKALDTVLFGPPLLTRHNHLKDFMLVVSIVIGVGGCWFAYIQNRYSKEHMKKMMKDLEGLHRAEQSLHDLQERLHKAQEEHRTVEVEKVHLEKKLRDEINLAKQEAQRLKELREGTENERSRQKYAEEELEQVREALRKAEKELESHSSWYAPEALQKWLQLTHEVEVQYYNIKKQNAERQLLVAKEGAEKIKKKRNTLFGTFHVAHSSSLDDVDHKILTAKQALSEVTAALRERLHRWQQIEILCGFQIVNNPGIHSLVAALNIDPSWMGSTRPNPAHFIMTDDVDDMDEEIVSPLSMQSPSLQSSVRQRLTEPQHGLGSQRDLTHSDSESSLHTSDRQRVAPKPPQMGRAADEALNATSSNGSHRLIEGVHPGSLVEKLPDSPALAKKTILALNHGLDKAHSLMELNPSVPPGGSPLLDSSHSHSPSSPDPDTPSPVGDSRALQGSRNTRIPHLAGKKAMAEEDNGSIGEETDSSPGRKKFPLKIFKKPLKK

| IC50 (IL-2 production [4]; bins in nM) [nM] | Compound | pIC50 (CRAC ion channel [1]) | further results |
| --- | --- | --- | --- |
| – | Cc1nnsc1C(=O)Nc1ccc(-c2cc(C(F)(F)F)ccc2Cl)cc1 [Compound 27, 4-Methyl-[1,2,3]thiadiazole-5-carboxylic acid (2′-chloro-5′-trifluoromethyl-biphenyl-4-yl)-amide] | 6.40 | – |
| – | COc1ccc(OC)c(-c2ccc(NC(=O)c3cccc(F)c3F)cc2)c1 [Compound 31, N-(2′,5′-Dimethoxy-biphenyl-4-yl)-2,3-difluoro-benzamide] | 7.00 | IL-2 production after IV infusion (IL-2 production [2]): significantly inhibit; TNF-α production after IV infusion (TNF-α production): significantly inhibit; inhibition of ICRAC current in primary T cells compared with RBL cells (CRAC ion channel [3]): inhibits ICRAC current equally well in primary T cells as in RBL cells |
| < 100 | COc1ccc(C)cc1-c1ccc(NC(=O)c2cccc(F)c2F)cc1 [Compound 46, N-(2′-methoxy-5′-methyl-biphenyl-4-yl)-2,3-difluorobenzamide] | – | – |
| 100 to 500 | Cc1nocc1C(=O)Nc1ccc(-c2cc(C(F)(F)F)ccc2C(F)(F)F)cc1 [Compound 48, 3-methylisoxazole-4-carboxylic acid (2′,5′-bis-trifluoromethyl-biphenyl-4-yl)-amide] | – | – |
| – | O=C(Nc1ccc(-c2cc(C(F)(F)F)ccc2C(F)(F)F)cc1)c1ccnc2ccccc12 [Compound 57, quinoline-4-carboxylic acid (2′,5′-bis-trifluoromethyl-biphenyl-4-yl)-amide] | – | IC50 (IL-2 production [4]; bin printed with mixed units nM and μM): 500 to 1000 nM |
| – | COc1ccc(Cl)cc1-c1ccc(NC(=O)c2cc(F)c(F)cc2F)cc1 [Compound 84, N-(2′-methoxy-5′-chloro-biphenyl-4-yl)-2,4,5-trifluorobenzamide] | 6.52 | – |
